From ChEMBL document CHEMBL3813680, “Discovery of a 2-hydroxyacetophenone derivative as an outstanding linker to enhance potency and β-selectivity of liver X receptor agonist” (Bioorg Med Chem, 2016)

What was measured:
[1] = molecular target: T1, Oxysterols receptor LXR-alpha (Homo sapiens, UniProt Q13133); test: Agonist activity at GAL4 fused LXRalpha (unknown origin) transfected in CHOK1 cells after 24 hrs by luciferase reporter gene assay
T1 sequence (Q13133 whole entry): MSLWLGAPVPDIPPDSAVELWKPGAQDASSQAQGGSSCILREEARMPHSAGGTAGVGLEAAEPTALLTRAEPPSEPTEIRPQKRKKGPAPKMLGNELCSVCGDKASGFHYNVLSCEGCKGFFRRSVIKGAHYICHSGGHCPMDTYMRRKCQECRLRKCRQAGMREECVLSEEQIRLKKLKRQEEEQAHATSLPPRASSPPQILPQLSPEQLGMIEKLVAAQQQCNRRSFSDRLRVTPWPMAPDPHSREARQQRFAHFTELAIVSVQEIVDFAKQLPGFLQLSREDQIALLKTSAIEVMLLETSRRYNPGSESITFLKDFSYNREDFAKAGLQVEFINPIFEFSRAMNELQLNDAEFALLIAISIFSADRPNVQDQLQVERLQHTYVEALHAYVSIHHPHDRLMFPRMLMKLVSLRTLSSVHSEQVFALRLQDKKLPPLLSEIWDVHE

[2] = molecular target: T2, Oxysterols receptor LXR-beta (Homo sapiens, UniProt P55055); test: Agonist activity at GAL4 fused LXRbeta-LBD (unknown origin) transfected in CHOK1 cells after 24 hrs by luciferase reporter gene assay
T2 sequence (P55055 whole entry): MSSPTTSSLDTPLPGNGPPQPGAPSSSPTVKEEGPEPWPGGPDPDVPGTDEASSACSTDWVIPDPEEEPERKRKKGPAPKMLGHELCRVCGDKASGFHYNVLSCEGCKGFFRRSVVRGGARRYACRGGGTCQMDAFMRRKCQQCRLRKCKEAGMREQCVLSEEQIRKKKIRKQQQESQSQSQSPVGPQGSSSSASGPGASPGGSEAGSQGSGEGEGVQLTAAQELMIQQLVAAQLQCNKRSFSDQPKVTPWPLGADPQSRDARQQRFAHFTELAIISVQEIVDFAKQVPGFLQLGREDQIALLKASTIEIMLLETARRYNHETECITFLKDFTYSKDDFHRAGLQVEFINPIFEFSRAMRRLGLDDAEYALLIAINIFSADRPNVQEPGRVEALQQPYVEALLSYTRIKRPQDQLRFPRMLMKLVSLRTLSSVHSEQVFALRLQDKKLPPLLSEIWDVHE

[3] = Cmax in mouse plasma at 10 mg/kg, po measured up to 24 hrs by HPLC-LC-MS/MS analysis; format: ADME, organism-based; design: dose 10 mg/kg, route oral
[4] = AUC in mouse plasma at 10 mg/kg, po measured up to 24 hrs by HPLC-LC-MS/MS analysis; format: ADME, organism-based; design: time < 24 hr, dose 10 mg/kg, route oral
Mus musculus [5] = test: Antiatherosclerosis activity in LDL receptor knock out mouse model assessed as decrease in area of lipid accumulation at 1 mg/kg, po by HPLC analysis relative to control; format: functional; design: scale not given: the % may be the effect or the level left
Mus musculus [6] = test: Antiatherosclerosis activity in LDL receptor knock out mouse model assessed as decrease in area of lipid accumulation at 3 mg/kg, po by HPLC analysis relative to control; format: functional; design: scale not given: the % may be the effect or the level left
Mus musculus [7] = test: Antiatherosclerosis activity in LDL receptor knock out mouse model assessed as increase in TG levels at 1 mg/kg, po by HPLC analysis relative to control; format: functional
Mus musculus [8] = test: Antiatherosclerosis activity in LDL receptor knock out mouse model assessed as increase in TG levels at 3 mg/kg, po by HPLC analysis relative to control; format: functional
Mus musculus [9] = test: Antiatherosclerosis activity in LDL receptor knock out mouse model assessed as LDL-C levels at 1 mg/kg, po by HPLC analysis relative to control; format: functional
Mus musculus [10] = test: Antiatherosclerosis activity in LDL receptor knock out mouse model assessed as decrease in LDL-C levels at 3 mg/kg, po by HPLC analysis relative to control; format: functional; design: scale not given: the % may be the effect or the level left
Mus musculus [11] = test: Antiatherosclerosis activity in LDL receptor knock out mouse model assessed as increase in HDL-C levels at 1 mg/kg, po by HPLC analysis relative to control; format: functional
Mus musculus [12] = test: Antiatherosclerosis activity in LDL receptor knock out mouse model assessed as increase in HDL-C levels at 3 mg/kg, po by HPLC analysis relative to control; format: functional
Mus musculus [13] = test: Antiatherosclerosis activity in LDL receptor knock out mouse model assessed as increase in TC levels at 1 mg/kg, po by HPLC analysis relative to control; format: functional
Mus musculus [14] = test: Antiatherosclerosis activity in LDL receptor knock out mouse model assessed as increase in TC levels at 3 mg/kg, po by HPLC analysis relative to control; format: functional
Mus musculus [15] = test: Upregulation of ABCA1 mRNA expression in LDL receptor knock-out mouse blood at 1 mg/kg, po relative to control; format: functional
Mus musculus [16] = test: Upregulation of ABCA1 mRNA expression in LDL receptor knock-out mouse blood at 3 mg/kg, po relative to control; format: functional
Mus musculus [17] = test: Upregulation of SREBP-1c expression in LDL receptor knock-out mouse liver at 1 mg/kg, po relative to control; format: functional
Mus musculus [18] = test: Upregulation of SREBP-1c expression in LDL receptor knock-out mouse liver at 3 mg/kg, po relative to control; format: functional

Q: Which EC50 [1] does the source give for `CCCc1cc(C(O)(C(F)(F)F)C(F)(F)F)ccc1Oc1ccc(C(=O)CN2C(=O)NC(C)(c3ccc(OC(C)C)cn3)C2=O)c(O)c1` (single isomer, unassigned; (-)) here?
A: 200 nM

Q: What about the EC50 [2] of the same molecule?
A: 7 nM

Q: And the Cmax [3]?
A: 503 ng/mL

Q: What about the AUC at 24 h [4] of the same molecule?
A: 3030 ng·h/mL

Q: What about the Activity (Mus musculus [5]) of the same molecule?
A: 62%

Q: And the Activity (Mus musculus [6])?
A: 59%

Q: What about the Activity (Mus musculus [7]) of the same molecule?
A: 152%

Q: What about the Activity (Mus musculus [8]) of the same molecule?
A: 166%

Q: What about the Activity (Mus musculus [9]) of the same molecule?
A: 108%

Q: And the Activity (Mus musculus [10])?
A: 97%

Q: What about the Activity (Mus musculus [11]) of the same molecule?
A: 115%

Q: And the Activity (Mus musculus [12])?
A: 116%

Q: What about the Activity (Mus musculus [13]) of the same molecule?
A: 111%

Q: And the Activity (Mus musculus [14])?
A: 102%

Q: And the “fold change (FC)” value (Mus musculus [15])?
A: 2.1

Q: What about the “fold change (FC)” value (Mus musculus [16]) of the same molecule?
A: 3

Q: And the “fold change (FC)” value (Mus musculus [17])?
A: 1.2

Q: And the “fold change (FC)” value (Mus musculus [18])?
A: 1.5
